In patent US20260159499A1, “COMPOUND AS FAK INHIBITOR AND USE THEREOF” (WIGEN BIOMEDICINE TECHNOLOGY (SHANGHAI) CO., LTD., priority 2021, published 2026):

Columns and labels:
PC3 cells [1] = test: PC3 cell proliferation, 3D activity detection; assay type: cell-based, human; conditions: PC3, 3D culture, 14 days, read-out: 3D IC50 against PC3 cells
Description: 3D activity detection: PC3 cells were seeded in a 96-well plate at 1200 cells/well, and 3D culture was performed. 14 days after the compound serially diluted was added, the growth of the cells was determined. The inhibition percentage and IC50 of the compound were calculated compared to the DMSO control group.

PC3 cells [2] = test: PC3 cell proliferation, 2D activity detection; assay type: cell-based, human; conditions: PC3, 2D, 72 h, class symbol, read-out: 2D IC50 against PC3 cells
Description: 2D activity detection: 1200 PC3 cells were seeded in a 96-well plate. After overnight adherence culture, the compound serially diluted was added. 72 h after addition, Cell Titer-Lumi (Beyotime C0068XL) was added to measure the ATP content in the cells. The growth of the cells was evaluated, and IC50 of the compounds against cell growth was calculated.

FAK recombinant protein = FAK recombinant protein (Homo sapiens, UniProt Q05397); test: Inhibitory activity against FAK enzyme; assay type: biochemical; conditions: TK substrate, ATP
FAK recombinant protein, sequence (Q05397 whole entry, species assumed): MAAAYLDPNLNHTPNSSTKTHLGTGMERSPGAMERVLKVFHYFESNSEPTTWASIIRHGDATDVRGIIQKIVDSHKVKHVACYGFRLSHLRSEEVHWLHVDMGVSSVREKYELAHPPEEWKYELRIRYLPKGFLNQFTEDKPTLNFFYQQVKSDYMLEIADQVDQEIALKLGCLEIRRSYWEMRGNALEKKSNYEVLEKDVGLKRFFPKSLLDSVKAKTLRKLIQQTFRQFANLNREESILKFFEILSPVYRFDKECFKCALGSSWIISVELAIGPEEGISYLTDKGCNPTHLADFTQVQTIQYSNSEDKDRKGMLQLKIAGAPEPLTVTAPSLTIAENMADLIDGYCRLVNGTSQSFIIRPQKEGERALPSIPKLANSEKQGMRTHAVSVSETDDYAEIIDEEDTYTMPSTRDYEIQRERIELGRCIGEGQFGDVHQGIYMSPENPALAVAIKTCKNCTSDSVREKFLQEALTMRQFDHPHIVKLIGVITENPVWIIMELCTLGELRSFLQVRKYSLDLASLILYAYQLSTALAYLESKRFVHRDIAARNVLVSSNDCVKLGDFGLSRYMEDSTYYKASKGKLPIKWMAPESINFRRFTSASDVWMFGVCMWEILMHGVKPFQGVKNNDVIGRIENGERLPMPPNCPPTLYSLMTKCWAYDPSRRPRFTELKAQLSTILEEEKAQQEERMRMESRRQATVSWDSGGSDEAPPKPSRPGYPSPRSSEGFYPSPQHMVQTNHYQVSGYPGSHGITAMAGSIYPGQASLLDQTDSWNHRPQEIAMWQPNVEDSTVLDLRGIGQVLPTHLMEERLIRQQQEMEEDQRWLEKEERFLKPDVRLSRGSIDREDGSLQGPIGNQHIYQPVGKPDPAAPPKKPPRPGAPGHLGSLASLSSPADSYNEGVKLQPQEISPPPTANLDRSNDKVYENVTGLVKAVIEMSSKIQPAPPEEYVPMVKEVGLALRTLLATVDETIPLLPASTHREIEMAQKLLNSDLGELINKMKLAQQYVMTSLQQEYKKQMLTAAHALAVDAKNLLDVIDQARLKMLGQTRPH
Description: The compound serially diluted with DMSO and a FAK recombinant protein were mixed, and the mixture was left to stand at room temperature for 10 min. A biotin-labeled TK substrate (TK) and ATP were then added. […] After the mixture was incubated at room temperature for 1 h, the fluorescence intensity at 615 nm and 665 nm was measured. The ratio of the fluorescence intensity at 665 nm and 615 nm was calculated. The inhibition percentages and IC50 of the compounds were calculated compared to the DMSO control group.

[3] = Homo sapiens, PC-3, 336 h, class symbol

Structure (SMILES) | IC50 (PC3 cells [1]; [3]) [nM] | IC50 (PC3 cells [2]; Homo sapiens, PC-3) [nM] | IC50 (FAK recombinant protein) [nM] | IC50 (PC3 cells [1]; Homo sapiens, PC-3, 336 h, numeric (mean where marked *)) [nM] | IC50 (PC3 cells [1]; class symbol) [nM] | IC50 (PC3 cells [2]) [nM]
CNC(=O)c1ccccc1Oc1nc(Nc2cc(F)c(C(=O)NC3CC4(CCN(C)CC4)C3)cc2OC)ncc1C(F)(F)F [Compound 1, 2-fluoro-5-methoxy-N-(7-methyl-7-azaspiro[3.5]nonan-2-yl)-4-((4-(2-(methylcarbamoyl)phenoxy)-5-(trifluoromethyl)pyrimidin-2-yl)amino)benzamide] | 5 to 50 | > 2000 | < 10 | – | – | –
CNC(=O)c1ccccc1Oc1nc(Nc2cc(F)c(C(=O)NC3CCC4(CC3)CN(C)C4)cc2OC)ncc1C(F)(F)F [Compound 2] | 5 to 50 | > 2000 | < 10 | – | – | –
CNC(=O)c1ccccc1Oc1nc(Nc2cc(F)c(C(=O)NC3CC4(CCN(C)CC4)CO3)cc2OC)ncc1C(F)(F)F (stereo not drawn) [Compound 3] | 5 to 50 | > 2000 | < 10 | – | – | –
CNC(=O)c1ccccc1Oc1nc(Nc2cc(F)c(C(=O)NC3CC4(CCN(C)C4)CO3)cc2OC)ncc1C(F)(F)F (stereo not drawn) [Compound 5] | 5 to 50 | > 2000 | < 10 | – | – | –
CNC(=O)c1ccccc1Oc1nc(Nc2cc(F)c(C(=O)NC3CCC4(CC3)CCN(C)CC4)cc2OC)ncc1C(F)(F)F [Compound 9] | 5 to 50 | > 2000 | 10 to 50 | – | – | –
COc1cc(C(=O)NC2CC3(CCN(C)CC3)C2)c(F)cc1Nc1ncc(C(F)(F)F)c(Oc2ccccc2N(C)S(C)(=O)=O)n1 [Compound 10] | < 5 | > 2000 | < 10 | – | – | –
COc1cc(C(=O)NC2CCC3(CCN(C)CC3)C2)c(F)cc1Nc1ncc(C(F)(F)F)c(Oc2ccccc2N(C)S(C)(=O)=O)n1 (stereo not drawn) [Compound 11] | 5 to 50 | > 2000 | < 10 | – | – | –
COc1cc(C(=O)NC2CC3(CCN(C)CC3)CO2)c(F)cc1Nc1ncc(C(F)(F)F)c(Oc2ccccc2N(C)S(C)(=O)=O)n1 (stereo not drawn) [Compound 12] | < 5 | > 2000 | < 10 | – | – | –
COc1cc(C(=O)NC2CCC3(CCN(C)C3)C2)c(F)cc1Nc1ncc(C(F)(F)F)c(Oc2ccccc2N(C)S(C)(=O)=O)n1 (stereo not drawn) [Compound 13] | 5 to 50 | > 2000 | < 10 | – | – | –
COc1cc(C(=O)NC2CC3(CCN(C)C3)CO2)c(F)cc1Nc1ncc(C(F)(F)F)c(Oc2ccccc2N(C)S(C)(=O)=O)n1 (stereo not drawn) [Compound 14] | < 5 | > 2000 | < 10 | – | – | –
COc1cc(C(=O)NC2COC3(CCN(C)C3)C2)c(F)cc1Nc1ncc(C(F)(F)F)c(Oc2ccccc2N(C)S(C)(=O)=O)n1 (stereo not drawn) [Compound 15] | < 5 | > 2000 | < 10 | – | – | –
COc1cc(C(=O)NC2CCC3(CC2)CCN(C)CC3)c(F)cc1Nc1ncc(C(F)(F)F)c(Oc2ccccc2N(C)S(C)(=O)=O)n1 [Compound 16] | 5 to 50 | > 2000 | 10 to 50 | – | – | –
COc1cc(C(=O)NC2CCC3(CC2)CN(C)C3)c(F)cc1Nc1ncc(C(F)(F)F)c(Oc2ccccc2N(C)S(C)(=O)=O)n1 [Compound 17] | 5 to 50 | > 2000 | < 10 | – | – | –
COc1cc(C(=O)NC2CCC3(CC2)CCN3C)c(F)cc1Nc1ncc(C(F)(F)F)c(Oc2ccccc2N(C)S(C)(=O)=O)n1 (stereo not drawn) [Compound 18] | 5 to 50 | > 2000 | < 10 | – | – | –
COc1cc(C(=O)NC2CCC3(CC2)CCN3C)c(F)cc1Nc1ncc(C(F)(F)F)c(Oc2cccc3c2C(=O)N(C)C3)n1 (stereo not drawn) [Compound 22] | < 5 | > 2000 | < 10 | – | – | –
COc1cc(C(=O)NC2COC3(CCN(C)CC3)C2)c(F)cc1Nc1ncc(C(F)(F)F)c(Oc2cccc3c2C(=O)N(C)C3)n1 (stereo not drawn) [Compound 23] | – | > 2000 | < 10 | 3.71 | – | –
COc1cc(C(=O)NC2CCC3(CCN(C)CC3)C2)c(F)cc1Nc1ncc(C(F)(F)F)c(Oc2cccc3c2C(=O)N(C)C3)n1 (stereo not drawn) [Compound 24] | 5 to 50 | > 2000 | < 10 | – | – | –
COc1cc(C(=O)NC2CCC3(CC2)CCN(C)C3)c(F)cc1Nc1ncc(C(F)(F)F)c(Oc2cccc3c2C(=O)N(C)C3)n1 (stereo not drawn) [Compound 25] | < 5 | > 2000 | < 10 | – | – | –
COc1cc(C(=O)NC2CCC3(CC2)CCN(C)CC3)c(F)cc1Nc1ncc(C(F)(F)F)c(Oc2cccc3c2C(=O)N(C)C3)n1 [Compound 26] | 5 to 50 | > 2000 | < 10 | – | – | –
COc1cc(C(=O)NC2CCC3(CCN(C)C3)C2)c(F)cc1Nc1ncc(C(F)(F)F)c(Oc2cccc3c2C(=O)N(C)C3)n1 (stereo not drawn) [Compound 27] | 5 to 50 | > 2000 | < 10 | – | – | –

Structure (SMILES) | IC50 (PC3 cells [1]; [3]) [nM] | IC50 (PC3 cells [2]; Homo sapiens, PC-3) [nM] | IC50 (FAK recombinant protein) [nM] | IC50 (PC3 cells [1]; Homo sapiens, PC-3, 336 h, numeric (mean where marked *)) [nM] | IC50 (PC3 cells [1]; class symbol) [nM] | IC50 (PC3 cells [2]) [nM]
COc1cc(C(=O)NC2CCN3CCOC3C2)c(F)cc1Nc1ncc(C(F)(F)F)c(Oc2cccc3c2C(=O)N(C)C3)n1 (stereo not drawn) [Compound 30] | 5 to 50 | > 2000 | < 10 | – | – | –
COc1cc(C(=O)NC2CCN3CCN=C3C2)c(F)cc1Nc1ncc(C(F)(F)F)c(Oc2cccc3c2C(=O)N(C)C3)n1 (stereo not drawn) [Compound 31] | 5 to 50 | > 2000 | < 10 | – | – | –
COc1cc(C(=O)NC2CCn3ccnc3C2)c(F)cc1Nc1ncc(C(F)(F)F)c(Oc2cccc3c2C(=O)N(C)C3)n1 (stereo not drawn) [Compound 32] | 5 to 50 | > 2000 | < 10 | – | – | –
COc1cc(C(=O)NC2CCn3cnnc3C2)c(F)cc1Nc1ncc(C(F)(F)F)c(Oc2cccc3c2C(=O)N(C)C3)n1 (stereo not drawn) [Compound 33] | 5 to 50 | > 2000 | < 10 | – | – | –
COc1cc(C(=O)N2CCC3(CCN(C)CC3)CC2)c(F)cc1Nc1ncc(C(F)(F)F)c(Oc2cccc3c2C(=O)N(C)C3)n1 [Compound 35] | > 50 | > 2000 | > 50 | – | – | –
COc1cc(C(=O)N2CCC3(CCN(C)C3)C2)c(F)cc1Nc1ncc(C(F)(F)F)c(Oc2cccc3c2C(=O)N(C)C3)n1 (stereo not drawn) [Compound 36] | 5 to 50 | > 2000 | < 10 | – | – | –
COc1cc(C(=O)N2CCC3(CCN(C)C3)C2)c(F)cc1Nc1ncc(C(F)(F)F)c(Oc2cccc3c2C(=O)N(C)C3)n1 (stereo not drawn) [Compound 37] | – | – | < 10 | – | 5 to 50 | > 2000
COc1cc(C(=O)N2CCC23CCN(C)CC3)c(F)cc1Nc1ncc(C(F)(F)F)c(Oc2cccc3c2C(=O)N(C)C3)n1 [Compound 38] | 5 to 50 | > 2000 | 10 to 50 | – | – | –
COc1cc(C(=O)N2CCC3(CCN(C)CC3)C2)c(F)cc1Nc1ncc(C(F)(F)F)c(Oc2cccc3c2C(=O)N(C)C3)n1 [Compound 39] | 5 to 50 | > 2000 | < 10 | – | – | –
COc1cc(C(=O)N2CCC3(CCCN(C)C3)C2)c(F)cc1Nc1ncc(C(F)(F)F)c(Oc2cccc3c2C(=O)N(C)C3)n1 (stereo not drawn) [Compound 40] | 5 to 50 | > 2000 | < 10 | – | – | –
COc1cc(C(=O)NC2CC3(CCNCC3)C2)c(F)cc1Nc1ncc(C(F)(F)F)c(Oc2cccc3c2C(=O)N(C)C3)n1 [Compound 41] | 5 to 50 | > 2000 | 10 to 50 | – | – | –
CCN1CCC2(CC1)CC(NC(=O)c1cc(OC)c(Nc3ncc(C(F)(F)F)c(Oc4cccc5c4C(=O)N(C)C5)n3)cc1F)C2 [Compound 42] | < 5 | > 2000 | < 10 | – | – | –
COc1cc(C(=O)NC2CC3(CCN(C)CC3)C2)c(Cl)cc1Nc1ncc(C(F)(F)F)c(Oc2cccc3c2C(=O)N(C)C3)n1 [Compound 43] | < 5 | > 2000 | < 10 | – | – | –
COc1cc(C(=O)NC2CCC3(CC2)CN(C)C3)c(Cl)cc1Nc1ncc(C(F)(F)F)c(Oc2cccc3c2C(=O)N(C)C3)n1 [Compound 44] | 5 to 50 | > 2000 | < 10 | – | – | –
COc1cc(C(=O)NC2CC3(CCN(C)CC3)C2)ccc1Nc1ncc(C(F)(F)F)c(Oc2cccc3c2C(=O)N(C)C3)n1 [Compound 45] | < 5 | > 2000 | < 10 | – | – | –
COc1cc(C(=O)NC2CCC3(CC2)CN(C)C3)ccc1Nc1ncc(C(F)(F)F)c(Oc2cccc3c2C(=O)N(C)C3)n1 [Compound 46] | 5 to 50 | > 2000 | < 10 | – | – | –
[2H]C([2H])([2H])N1CCC2(CC1)CC(NC(=O)c1cc(OC)c(Nc3ncc(C(F)(F)F)c(Oc4cccc5c4C(=O)N(C)C5)n3)cc1F)C2 [Compound 47] | < 5 | > 2000 | < 10 | – | – | –
[2H]C([2H])([2H])N1CC2(CCC(NC(=O)c3cc(OC)c(Nc4ncc(C(F)(F)F)c(Oc5cccc6c5C(=O)N(C)C6)n4)cc3F)CC2)C1 [Compound 48] | 5 to 50 | > 2000 | < 10 | – | – | –
COc1cc(C(=O)NC2CC3(CCN(C)CC3)C2)c(F)cc1Nc1ncc(C(F)(F)F)c(Cc2cccc3c2C(=O)N(C)C3)n1 [Compound 49, 2-fluoro-5-methoxy-4-((4-((2-methyl-3-oxoisoindolin-4-yl)methyl)-5-(trifluoromethyl)pyrimidin-2-yl)amino)-N-(7-methyl-7-azaspiro[3.5]nonan-2-yl)benzamide] | < 5 | > 2000 | < 10 | – | – | –
